The record followed here is patent publication US4931444A, “5-lipoxygenase inhibiting 4-(4-phenyl-1-piperazinyl)phenols” (Janssen Pharmaceutica N.V., priority 1989, dated 1990).

In test [1] the test system is Dextran-induced edema formation in the ears of mice. The experiment in a line: Inhibition of Dextran-induced edema formation in the ears of mice. Format: in vivo, male Swiss mice. Conditions: Column B, at 10 mg/kg body weight, 1 h before dextran; for inhibition in vivo at 10 mg/kg: Mus musculus, po, read-out: inhibition of Dextran-induced blueing of the ears of mice, % inhibition. The source says:
Inhibition of Dextran-induced edema formation in the ears of mice.
Intravenous injection of Dextran T500® (Pharmacia) and pontamine sky-blue dye into mice results in increased vascular permeability and edema formation, characterized by an intense blueing of the ears. Determination of the amount of extravasated dye is presumed to yield a quantitative measure of the 5-lipoxygenase inhibiting activity of the test compounds (Drug. Dev. Res. 8, 213-218, 1986). Unfasted male Swiss mice weighing 24-26 g were used in the experiments which were performed between 13.00 pm and 17.00 pm at an ambient temperature of 22±1° C. The mice were treated orally with a test compound of formula (I) dissolved in a volume of […] of either polyethyleneglycol (PEG 200) or hydroxypropyl cyclodextrine at doses varying between 1.25 and 40 mg per kg bodyweight. In control experiments the mice were administered an identical amount of solvent alone. One hour after treatment there was injected intravenously an isotonic saline solution containing 60 mg/ml Dextran T500® and 13 mg/ml pontamine sky-blue dye in a volume of 0.1 ml per 10 g bodyweight. One hour and forty-five minutes later the animals were sacrificed by ether and their ears were removed. Extraction and quantification of the extravasated dye were performed as described (Drug Dev. Res. 8, 213-218, 1986). The calculated percentage of inhibition of ear blueing upon administration of a compound of formula (I) at a dose of 10 mg/kg bodyweight is shown in the second column of table 12.

Another test has as its target T1, 5-lipoxygenase (Rattus norvegicus, UniProt P12527).
T1 construct: The supernatant, aliquoted and stored at -70° C., was used as the source of 5-lipoxygenase activity; endogenous in cells; host or cells: Rat basophilic leukemia (RBL) cells, 10,000×g supernatant of the sonicate (crude, not purified)
T1 sequence (P12527 1-673): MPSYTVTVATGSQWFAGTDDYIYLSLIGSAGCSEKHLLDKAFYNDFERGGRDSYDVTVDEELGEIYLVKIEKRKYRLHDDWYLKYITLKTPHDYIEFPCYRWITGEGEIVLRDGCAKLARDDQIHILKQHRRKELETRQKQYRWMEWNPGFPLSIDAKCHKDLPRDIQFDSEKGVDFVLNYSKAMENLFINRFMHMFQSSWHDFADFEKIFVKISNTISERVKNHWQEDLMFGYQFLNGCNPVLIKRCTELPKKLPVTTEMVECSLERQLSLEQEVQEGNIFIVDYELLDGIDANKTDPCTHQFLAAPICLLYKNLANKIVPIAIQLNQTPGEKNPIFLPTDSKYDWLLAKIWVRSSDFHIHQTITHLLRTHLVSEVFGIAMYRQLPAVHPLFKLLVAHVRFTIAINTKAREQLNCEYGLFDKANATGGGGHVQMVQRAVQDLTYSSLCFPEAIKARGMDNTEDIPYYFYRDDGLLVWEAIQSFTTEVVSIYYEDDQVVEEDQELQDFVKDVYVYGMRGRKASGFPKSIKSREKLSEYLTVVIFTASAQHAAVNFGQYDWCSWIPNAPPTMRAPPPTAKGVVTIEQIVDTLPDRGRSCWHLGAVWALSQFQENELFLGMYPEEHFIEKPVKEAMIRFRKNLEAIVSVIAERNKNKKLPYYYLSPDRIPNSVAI
The experiment in a line: Arachidonate 5-lipoxygenase inhibition in Rat Basophilic Leukemia Cells Supernatant. Conditions: Column A, 5-HPETE and LTB4 formation; for inhibition: read-out: 5-lipoxygenase inhibition in RBL cells supernatant, % inhibition. It counts as biochemical. Set-up: dose or concentration left out as unconfirmed.

The inhibition is the percentage by which the read-out fell short of the control. Regarding `CC(C(O)c1ccc(Cl)cc1Cl)n1ncn(-c2ccc(N3CCN(c4ccc(O)cc4)CC3)cc2)c1=O` (stereo not drawn) [Compound 7.22], in test [1], the inhibition in vivo at 10 mg/kg came out at 94%. Further, the inhibition at 5-lipoxygenase amounted to 100%.
On to `CC(C(O)c1ccc(Cl)cc1Cl)n1ncn(-c2ccc(N3CCN(c4ccc(O)cc4)CC3)cc2)c1=O` (stereo not drawn) [Compound 7.23], for which the “inhibition of Dextran-induced blueing of the ears of mice, % inhibition” value in test [1] (oral) is 94%. For the same molecule, at 5-lipoxygenase, the “5-lipoxygenase inhibition in RBL cells supernatant, % inhibition” value stood at 91%.
Take `O=c1n(-c2ccc(N3CCN(c4ccc(O)cc4)CC3)cc2)cnn1CC(F)(F)F` [Compound 7.11]: the inhibition in vivo at 10 mg/kg in test [1] is 81%. The inhibition at 5-lipoxygenase came out at 81%.
Regarding `CC(C(=O)c1cccc(Cl)c1)n1ncn(-c2ccc(N3CCN(c4ccc(O)cc4)CC3)cc2)c1=O` (stereo not drawn) [Compound 7.37], in test [1], the inhibition in vivo at 10 mg/kg was found to be 73%. Further, on 5-lipoxygenase, the inhibition was determined as 100%.
For `CN1C(=S)N(c2ccc(N3CCN(c4ccc(O)cc4)CC3)cc2)C(=O)C1(C)C` [Compound 5.12], in that order: 88% and 81%.
Take `Cc1cc(N2CCN(c3ccc(-n4c(C)nn(C(C)C(O)c5ccc(Br)cc5)c4=O)cc3)CC2)cc(C)c1O` (stereo not drawn) [Compound 7.54, 2-[2-(4-bromophenyl)-2-hydroxy-1-methylethyl]-2,4-dihydro-4-[4-[4-(4-hydroxy-3,5-dimethylphenyl)-1-piperazinyl]phenyl]-5-methyl-3H-1,2,4-triazol-3-one]: in test [1], the inhibition in vivo at 10 mg/kg stood at 76%. On 5-lipoxygenase, the inhibition was 79%.
